Data set [1] deals with C57Bl6 mice, myocardial ischemia-reperfusion. As to the kind of experiment: Myocardial ischemia-reperfusion IR60' (40 min ischemia, 60 min reperfusion). Format: in vivo, mouse. Here is the method: FIG. 11: In vivo experimental protocol. C57Bl6 mice underwent a surgical protocol of myocardial ischemia-reperfusion (IR). The black box represents the period of ischemia to which the mice were submitted. Infarct size or cell death measurements were performed at the end of surgery for each protocol (indicated by ↑). IR60′: 40 minutes of Ischemia, 60 minutes of Reperfusion. IR24h: 40 minutes Ischemia and 24 hours Reperfusion.
FIG. 12: Cardioprotective effects of Tat-DAXXp (1 mg/kg—IV) in mice subjected to IR60′. Infarct size (in % of area at risk) and internucleosomal DNA fragmentation determined by ELISA were quantified in mice subjected to IR60′ and treated with Tat, Tat-DAXXp or Tat-scrDAXXp (1 mg/kg) as well as with DAXXp (10 mg/kg) (intravenous injection (IV) 5 minutes before reperfusion). Means±SEM were plotted for (A): Area at risk/LV mass (left ventricle), (B): Infarct size (in % of area at risk) and (C): (I/NI ratio) corresponding to the ratio of soluble nucleosome in the ischemic portion versus the non-ischemic portion of LV tissues. Statistical analysis was performed using One-way ANOVA with Neuman-Keuls post test for multiple comparisons (GraphPad Prism software). P<0.05, P<0.01 and P<0.001 versus Tat-DAXXp were noted *, **, and *** respectively. P=ns (not significant) for P>0.05.
FIG. 13: Dose response for Tat-DAXXp and DAXXp in mice subjected to IR60′. Infarct size (in % of area at risk) and internucleosomal DNA fragmentation determined by ELISA were quantified in mice subjected to IR60′ and treated with Tat (1 mg/kg), Tat-DAXXp (0.1, 1 and 10 mg/kg) or DAXXp (0.1, 1 and 10 mg/kg) injected intravenously 5 minutes before reperfusion. Means±SEM were plotted for (A): Area at risk/LV mass (left ventricle), (B): Infarct size (in % of area at risk) and (C): (I/NI ratio) corresponding to the ratio of soluble nucleosome in the ischemic versus the non-ischemic portion of LV tissues.
In a second step, the cardioprotective effects of DAXXp were evaluated in an in vivo model of myocardial ischemia-reperfusion. Acute myocardial ischemia and reperfusion were performed in C57Bl6 mice subjected to a surgical model of reversible coronary occlusion. Male mice (22-28 g) were anesthetized and ventilated via a tracheal intubation using a Harvard rodent respirator. Body temperature was maintained between 36.8° C. and 37.0° C. via a thermo-regulated surgical table. The chest was opened by left lateral thoracotomy and a reversible coronary artery snare occluder was placed around the left coronary artery. Mice were randomly allocated to two different surgical protocols of myocardial ischemia-reperfusion (FIG. 11). At the end of reperfusion, the artery was re-occluded and phtalocyanine blue dye was injected into the left ventricle cavity and allowed to perfuse the non-ischemic portions of the myocardium. To determine the effect of DAXXp on myocardial infarct size, peptides were administered intravenously (caudal vein) 5 minutes before reperfusion during the surgical protocol of ischemia-reperfusion. The control groups were treated with Tat or Pip2b peptide (for CPP alone). The dose of 1 mg/kg was chosen (μmolar range) and dose responses for 0.1 and 10 mg/kg were also tested.
At the end of reperfusion, mice were re-anaesthetized, the coronary ligature definitively tightened, the blue dye injected and the harvested left ventricles were dedicated to infarct size (TTC method, Schwartz et al, J Thromb. Thromb., 2000; 10: 181-187) or DNA fragmentation measurements (Cell death detection ELISA^PLUS kit, Roche Diagnostics) in order to investigate the cardioprotective effects against ischemia-reperfusion injuries.

Data set [2] can be described thus: Stability in 20% mouse serum (reverse-phase HPLC). Type of data set: in vitro ADME. As to conditions: 37° C.; for remaining at 2 h: 2 h incubation, read-out: peptide still intact; for peptide degradation: after 24 hours. The method, then: FIG. 3: Evaluation of Tat-DAXXp and Pip2b-DAXXp protease ability. (A) Stability measurements of Tat-DAXXp and Pip2b-DAXXp conjugates in fetal bovine serum (FBS, BioWest) and (B) freshly prepared mouse serum (MS). Peptides were incubated with 20% serum at 37° C. for 0 h, 1 h, 2 h, 4 h, 8 h, 24 h, and 48 h, and 50 μl of the incubation mixture was precipitated in 100 μl 10% dichloroacetic acid (DCA) in H2O/CH3CN (50/50). The samples were mixed and kept at −20° C. The precipitated serum proteins were separated by centrifugation (14,000 rpm, 10 minutes) and the supernatant was analyzed by reverse-phase HPLC (measurement of the peak area in mV*sec). n≧2 for each condition.

The subject of data set [3] is C2C12 cells. As to the kind of experiment: STS-induced DNA fragmentation (Cell Death detection ELISA PLUS) in C2C12 cells. Format: cell-based, mouse. As to conditions: murine C2C12 (model for muscle cells); FIG. 5A. Here is the method:
FIG. 5: In vitro evaluation of the anti-apoptotic activity of CPPs and CPP-conjugates. Workflow and quantitation of DNA fragmentation in (A) C2C12 cells, (B) primary cardiomyocytes, (C) H9c2 cells and (D) NG108-15 cells. Data were normalized to 100% STS. Data shown are the means±SEM, with n≧5. Cells were seeded in 24-well plates and grown overnight. The next day, the cells were incubated with STS alone or with STS+1 μM peptide (in OPTI-MEM) (OPTI-MEM® is a modification of Eagle's Minimum Essential Media, buffered with HEPES and sodium bicarbonate, and supplemented with hypoxanthine, thymidine, sodium pyruvate, L-glutamine, trace elements, and growth factors) (STS concentration and incubation time for each cells are given in the figure). […] Following the regeneration phase, the cells were lyzed and DNA fragmentation was detected according to manufacturer's instructions (Cell Death detection ELISA^PLUS kit—Roche Diagnostics). […]
Thereafter, the capacity of these peptides to inhibit apoptosis induced by staurosporine was evaluated. Apoptosis was determined using the Cell Death detection ELISA^PLUS kit (Roche) measuring the DNA fragmentation.
The anti-apoptotic effects of the peptides were also analyzed in murine NG118-15 (model for neuronal cells) (FIG. 5D), in murine C2C12 (model for muscle cells) (FIG. 5A) and in rat H9c2 (model for cardiac cells) (FIG. 5C). […]
For orientation: An ELISA detects its analyte on a solid surface through an enzyme-linked reagent.

Non-standard residues stand in square brackets, D forms with d. Residues, ends and D or L forms follow the SMILES beside them. No end group written: not given here. Ahx = NCCCCCC(=O)O

On to `CC[C@H](C)[C@H](NC(=O)[C@H](Cc1c[nH]cn1)NC(=O)[C@@H](NC(=O)[C@H](CCCNC(=N)N)NC(=O)CCCCCNC(=O)[C@H](CCCNC(=N)N)NC(=O)[C@H](CCCNC(=N)N)NC(=O)CCCCCNC(=O)[C@H](CCCNC(=N)N)NC(=O)[C@H](CCCNC(=N)N)NC(=O)CCCCCNC(=O)[C@@H](N)CCCNC(=N)N)[C@@H](C)CC)C(=O)N[C@@H](CC(C)C)C(=O)N[C@@H](Cc1ccccc1)C(=O)N[C@@H](CCC(N)=O)C(=O)N[C@@H](CC(N)=O)C(=O)N[C@H](CCCNC(=N)N)C(=O)N[C@@H](CCCNC(=N)N)C(=O)N[C@@H](CCSC)C(=O)N[C@@H](CCCCN)C(=O)N[C@@H](Cc1c[nH]c2ccccc12)C(=O)N[C@@H](Cc1c[nH]cn1)C(=O)N[C@@H](CCCCN)C(=O)N[C@@H](CCCCN)C(=O)N[C@@H](CCCCN)C(=O)N[C@@H](CO)C(=O)N[C@@H](CCCNC(=N)N)C(=O)N[C@@H](CCCCN)C(=O)N[C@@H](CCC(=O)O)C(=O)N[C@@H](CCCCN)C(=O)N[C@@H](CCCCN)C(=O)N[C@@H](CCC(N)=O)C(=O)N[C@H](C(=O)NCC(=O)N[C@@H](CO)C(=O)NCC(=O)N1CCC[C@H]1C(=O)N[C@@H](CC(C)C)C(=O)NCC(N)=O)[C@@H](C)O` [Pip2b-DAXXp, (RXR)3-IHILFQNrRMKWHK-KKSRKEKKQTGSGPLG-NH2] (H-R[Ahx]RR[Ahx]RR[Ahx]RIHILFQN[dR]RMKWHKKKSRKEKKQTGSGPLG-NH2; N-terminus assumed), for which the “cardioprotection (infarct size, DNA fragmentation)” value in data set [1] (IR60', data not shown) is “not observed”. Further, in data set [2], the remaining at 2 h is over 70% and the peptide degradation entry is recorded as “all the peptide are degraded”.
Regarding “KKSRKEKKQTGSGPLG-NH2 [DAXXp, KKSRKEKKQTGSGPLG-NH2]”, the “decrease of infarct size” value in data set [1] (10 mg/kg injected alone (without CPP)) was “to the same extent than Tat-DAXXp”.
For the compound “GRKKRRQRRRPPQKKSRKEKKQTGSGPLG-NH2 [Tat-DAXXp, GRKKRRQRRRPPQ-KKSRKEKKQTGSGPLG-NH2]”, in data set [1] (1 mg/kg IV, IR60'), the “specific DNA fragmentation in left ventricles versus Tat-injected mice” value is “drastic decrease”. Further, in data set [1] (1 mg/kg intravenously 5 min before reperfusion, after 1 hour-reperfusion, p<0.01), the “decrease of infarct size versus Tat peptide alone” value is 53.4%. The “dose of maximal effect” value in data set [1] (dose response 0.1, 1 and 10 mg/kg IV, FIG. 13) is 1 mg/kg. Moreover, in data set [3], the “reduction in DNA fragmentation” value turned out to be 24%. In data set [2], the remaining at 2 h is over 70% and the peptide degradation result is “all the peptide are degraded”.

The record behind these values is patent US9814758B2, “Inhibitors of apoptosis and uses thereof” (CENTRE NATIONAL DE LA RECHERCHE SCIENTIFIQUE-CNRS, priority 2010, dated 2017).
